Data from ChEMBL document CHEMBL1201862, “PubChem BioAssay data set” (2004).
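Following 48 hours of exposure in 96-well plates, responses at five concentrations were used to interpolate endpoints linearly. GI50: concentration for 50% inhibition of growth.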 Active and inactive are the calls of the source. No stated cut-off is given here; in the data, active = GI50 up to about 1.1 µM and inactive = higher. Where a SMILES comes first, the peptide text is derived from it. [ ]: non-standard residue; d: D form. 2Nal = N[CH](Cc1ccc2ccccc2c1)C(=O)O

Assays:
Assay in all cases: NCI-60 cell line screen, 48 h
CAKI-1 = system: CAKI-1
CCRF-CEM = system: CCRF-CEM
HCC 2998 = system: HCC 2998
HCT-15 = system: HCT-15
Hs-578T = system: Hs-578T
KM12 = system: KM12
MDA-MB-231 = system: MDA-MB-231
MDA-MB-435 = system: MDA-MB-435
MOLT-4 = system: MOLT-4
OVCAR-5 = system: OVCAR-5
SF-295 = system: SF-295
SF-539 = system: SF-539
SK-MEL-2 = system: SK-MEL-2
SW-620 = system: SW-620
U-251 = system: U-251
UACC-257 = system: UACC-257
UO-31 = system: UO-31
HL-60 = system: HL-60
NCI/ADR-RES = system: NCI/ADR-RES
SR = system: SR

| Structure (SMILES) | GI50 (CAKI-1) | GI50 (CCRF-CEM) | GI50 (HCC 2998) | GI50 (HCT-15) | GI50 (Hs-578T) | GI50 (KM12) | GI50 (MDA-MB-231) | GI50 (MDA-MB-435) | GI50 (MOLT-4) | GI50 (OVCAR-5) | GI50 (SF-295) | GI50 (SF-539) | GI50 (SK-MEL-2) | GI50 (SW-620) | GI50 (U-251) | GI50 (UACC-257) | GI50 (UO-31) | GI50 (HL-60) | GI50 (NCI/ADR-RES) | GI50 (SR) |
| --- | --- | --- | --- | --- | --- | --- | --- | --- | --- | --- | --- | --- | --- | --- | --- | --- | --- | --- | --- | --- |
| CC1=C(C(=O)OC(C)(C)C)C(c2ccc([N+](=O)[O-])cc2)C(C(=O)OC(C)(C)C)=C(C)N1 | 28.9 µM (inactive) | 0.187 µM (active) | 13.2 µM (inactive) | 36.5 µM | 20.2 µM (inactive) | 20.7 µM (inactive) | 22.2 µM (inactive) | 27.9 µM (inactive) | 16.9 µM (inactive) | 19.1 µM (inactive) | 20.2 µM (inactive) | 19.8 µM (inactive) | 28.6 µM (inactive) | 26.9 µM (inactive) | 21.1 µM (inactive) | 18.8 µM (inactive) | 19.4 µM (inactive) |  |  |  |
| Cc1ccc(S(=O)(=O)NCc2cccc([N+](=O)[O-])c2)cc1 | > 100 µM (inactive) | 27.8 µM (inactive) |  | > 100 µM | > 100 µM (inactive) | > 100 µM (inactive) | > 100 µM (inactive) | > 100 µM (inactive) | 0.136 µM (active) | > 100 µM (inactive) | > 100 µM (inactive) | > 100 µM (inactive) | > 100 µM (inactive) | > 100 µM (inactive) | > 100 µM (inactive) | 75.9 µM (inactive) |  | 28.8 µM (inactive) | > 100 µM (inactive) | 5.3 µM (inactive) |
| N=C(N)C(/N=N\c1ccccc1)C(=N)N (configuration not stated) | 38.4 µM (inactive) | 13.5 µM (inactive) | 16.5 µM (inactive) | 49.8 µM | 48.9 µM (inactive) | 29.4 µM (inactive) | 15.3 µM (inactive) | 16.9 µM (inactive) | 30.5 µM (inactive) | 49.7 µM (inactive) | 32.9 µM (inactive) | 14.9 µM (inactive) | 23.4 µM (inactive) | 34.4 µM (inactive) | 24 µM (inactive) | 33.7 µM (inactive) | 30.5 µM (inactive) | 24.7 µM (inactive) | 60.4 µM (inactive) |  |
| C=CCN(CC=C)Cn1c(=S)sc2ccccc21 | 15.3 µM (inactive) | 22.2 µM (inactive) | > 100 µM (inactive) | 45 µM | > 100 µM (inactive) | > 100 µM (inactive) | 54.3 µM (inactive) | > 100 µM (inactive) | 94.8 µM (inactive) | > 100 µM (inactive) | > 100 µM (inactive) | 55.6 µM (inactive) | > 100 µM (inactive) | 48.8 µM (inactive) | > 100 µM (inactive) | > 100 µM (inactive) | 38.8 µM (inactive) | 16.5 µM (inactive) | > 100 µM (inactive) |  |
| C=CCN(c1cc(OCc2ccccc2)c(NC(C)=O)cc1[N+](=O)[O-])S(C)(=O)=O | 42 µM (inactive) | > 100 µM (inactive) | > 100 µM (inactive) | > 100 µM | 24.2 µM (inactive) | > 100 µM (inactive) | 15.7 µM (inactive) | > 100 µM (inactive) | > 100 µM (inactive) | > 100 µM (inactive) | 23.5 µM (inactive) | 17.2 µM (inactive) | 26.9 µM (inactive) | > 100 µM (inactive) |  | > 100 µM (inactive) | 33.1 µM (inactive) | > 100 µM (inactive) | 29.6 µM (inactive) |  |
| Cc1c2cnccc2nc2[nH]c3ccncc3c12 | 2.98 µM (inactive) | 5.75 µM (inactive) |  | 3.98 µM | 16.6 µM (inactive) | 6.79 µM (inactive) | 55 µM (inactive) | 6.46 µM (inactive) | 6.31 µM (inactive) | 5.62 µM (inactive) | 6.84 µM (inactive) | 6.73 µM (inactive) | 11.4 µM (inactive) | 3.93 µM (inactive) | 4.68 µM (inactive) | 20.1 µM (inactive) | 4.08 µM (inactive) | 19.9 µM (inactive) |  | 2.79 µM (inactive) |
| COC(=O)C(Cc1ccccc1)NP(=O)(O)OCC1OC(n2cc(I)c(=O)[nH]c2=O)CC1O (configuration not stated) | > 100 µM (inactive) | > 100 µM (inactive) |  | > 100 µM | > 100 µM (inactive) | > 100 µM (inactive) | > 100 µM (inactive) | > 100 µM (inactive) | > 100 µM (inactive) |  | > 100 µM (inactive) | > 100 µM (inactive) |  | > 100 µM (inactive) | > 100 µM (inactive) | > 100 µM (inactive) | > 100 µM (inactive) | > 100 µM (inactive) | > 100 µM (inactive) | > 100 µM (inactive) |
| CCc1cccc(CC)c1Nc1nc(-c2ccccc2-c2ccccc2)cs1 | > 100 µM (inactive) | > 100 µM (inactive) | > 100 µM (inactive) | 94.2 µM | 70.6 µM (inactive) | 94.8 µM (inactive) | > 100 µM (inactive) | 35 µM (inactive) | 75.2 µM (inactive) | > 100 µM (inactive) | > 100 µM (inactive) | > 100 µM (inactive) | > 100 µM (inactive) | > 100 µM (inactive) | 54.8 µM (inactive) | > 100 µM (inactive) | 64.4 µM (inactive) | 55.7 µM (inactive) |  | 52.1 µM (inactive) |
| COc1cccc2c1C(=O)c1c(O)c3c(c(O)c1C2=O)C[C@H](O)C[C@@H]3OC1CC(N)C(O)C(C)O1 (some centres not stated) | 1.08 µM (active) | 0.259 µM (active) |  | 11.5 µM | 0.802 µM (active) | 0.811 µM (active) | 1.78 µM (inactive) | 1.82 µM (inactive) | < 0.01 µM (active) | 1.97 µM (inactive) | 1.44 µM (inactive) | 1.33 µM (inactive) | 2.02 µM (inactive) |  |  | 1.58 µM (inactive) | 2.24 µM (inactive) |  | 13.4 µM (inactive) | < 0.01 µM (active) |
| CC1=NNC(=O)C1C1(C(=O)O)CC(c2c[nH]c3ccccc23)=NC(=S)N1 (configuration not stated) | 43.5 µM (inactive) | 27.2 µM (inactive) |  | 42.6 µM | 15.2 µM (inactive) | 15.2 µM (inactive) | 24.3 µM (inactive) | 35.5 µM (inactive) | 19.4 µM (inactive) | > 100 µM (inactive) | 19.4 µM (inactive) | 24.5 µM (inactive) | 18.4 µM (inactive) | 38.5 µM (inactive) | 26 µM (inactive) | 27.6 µM (inactive) | 29.8 µM (inactive) | 38.3 µM (inactive) | 46.8 µM (inactive) |  |
| CC(NC(=O)C(N)Cc1ccccc1)C(=O)NC(Cc1ccc(O)cc1)C(=O)NC(Cc1c[nH]c2ccccc12)C(=O)NC(CCCCN)C(=O)NC(C(=O)NC(C)C(=O)NC(Cc1ccc2ccccc2c1)C(N)=O)C(C)C (configuration not stated) (H-FAYWKVA[2Nal]-NH2; configuration not given here) | > 12.5 µM (inactive) | > 12.5 µM (inactive) | > 12.5 µM (inactive) | > 12.5 µM | > 12.5 µM (inactive) | > 12.5 µM (inactive) | > 12.5 µM (inactive) | > 12.5 µM (inactive) |  | > 12.5 µM (inactive) | > 12.5 µM (inactive) | > 12.5 µM (inactive) | > 12.5 µM (inactive) | > 12.5 µM (inactive) | > 12.5 µM (inactive) | > 12.5 µM (inactive) | > 12.5 µM (inactive) | > 12.5 µM (inactive) | > 12.5 µM (inactive) |  |
